Experimental data as given in patent publication EP0216105A1, “Diazaphosphorines, process for their preparation and their use as pesticide” (priority 1985, dated 1987).

Experiments:
[1] = system: Caenorhabditis elegans; assay: In vitro nematode test; conditions: concentration at which reproduction is prevented, 7 days at 22°C; for minimal effective concentration: Caenorhabditis elegans, 168 h, read-out: Dosis effectiva
Experimental: 10-^4 g Wirkstoff wurden in 1 ml Wasser oder 0,1 ml Dimethylsulfoxid (DMSO) gelöst. Diese Lösung wurde auf eine Replica-Platte gegeben. Dazu wurden 2 ml einer E-coli-Suspension gegeben, in der man 10-20 weibliche Tiere oder Larven von Caenorhabditis elegans in 0,5 ml M9 Pufferlösung gegeben hat. Die E-coli-Suspension wurde hergestellt indem man 300 ml einer Ubernachthalter eines Uracil-bedürftigen E-coli-Stammes mit 1,8 1 steriler M 9 Pufferlösung versetzte.
Der Versuchsansatz wurde 7 Tage bei 22°C inkubiert und danach ausgewertet. Es wurde bewertet inwieweit der Wirkstoff die Vermehrung beeinträchtigt und die Konzentration angegeben bei der die Vermehrung verhindert wird.

[2] = system: Larven (L3) des Meerrettichkäfers (Phaedon cochleariae); assay: Phaedon larvae test (treated cabbage leaves); type: in vivo; conditions: Phaedon cochleariae larvae (L3) on treated Brassica oleracea leaves; compared with the prior art; figures not given
Source text: (§1) • Lösungsmittel: 3 Gewichtsteile Aceton • Emulgator: 1 Gewichtsteil Alkylarylpolyglykolether
Zur Herstellung einer zweckmäßigen Wirkstoffzubereitung vermischt man 1 Gewichtsteil Wirkstoff mit der angegebenen Menge Lösungsmittel und der angegebenen Menge Emulgator und verdünnt das.Konzentrat mit Wasser auf die gewünschte Konzentration.
Kohlpflanzen (Brassica oleracea) werden mit der Wirkstoffzubereitung der gewünschten Konzentration behandelt. Ein Blatt der behandelten Pflanze wird in eine Plastikdose gelegt und mit Larven (L3) des Meerrettichkäfers (Phaedon cochleariae) besetzt. Nach 2 und 4 Tagen wird jeweils ein weiters Blatt von derselben Pflanze für die Nachfütterung verwendet.
Nach der gewünschten Zeit wird die Abtötung in % bestimmt. Dabei bedeutet 100 X, daß alle Käferlarven abgetötet wurden.

[3] = system: Raupe (L5) der Art Spodoptera frugiperda; assay: Spodoptera test (treated artificial diet discs); type: in vivo; conditions: Spodoptera frugiperda caterpillars (L5) on treated artificial diet; compared with the prior art; figures not given
Source text: as §1
Zur Herstellung einer zweckmäßigen Wirkstoffzubereitung vermischt man 1 Gewichtsteil Wirkstoff mit der angegebenen Menge Lösungsmittel und der angegebenen Menge Emulgator und verdünnt das Konzentrat mit Wasser auf die gewünschte Konzentrationen.
Kunstfutterscheiben, die in Plastikdosen liegen, werden durch Beträufeln mit der Wirkstoffzubereitung der gewünschten Konzentration behandelt. Nach Eindringen der Lösung besetzt man die Plastikdosen mit je 1 Raupe (L5) der Art Spodoptera frugiperda, wobei je Versuchsglied 5 Wiederholungen aufgestellt werden. Nach der Verpuppung legt man die Tiere eines Versuchsglieds in eine größere Dose. Nach der gewünschten Zeit wird die Abtötung in % bestimmt. Dabei bedeutet 100 X, daß alle Tiere abgetötet wurden; 0 X bedeutet, daß keine Tiere abgetötet wurden.

[4] = system: Mückenlarven (L4) (Aedes aegypti); assay: Aedes test (larvae in aqueous preparation); type: in vivo; conditions: 20 Aedes aegypti larvae (L4) per glass; compared with the prior art; figures not given
Source text: • Löcungcmittal: 3 Gewichtsteile Aceton • Emulgator: 1 Gewichtsteil Alkylarylpolyglykolether
Zur Herstellung einer zweckmäßigen Wirkstoffzubereitung vermischt man 1 Gawichtcteil Wirkstoff mit der angegebenen Menge Löcungcmittel und der angegebenen Menge Emulgator und verdünnt das Konzentrat mit Wasser auf die gewünschte Konzentrationen.
Man füllt die wässrigen Wirkctoffzubereitungen in Gläser und setzt anschließend 20 Mückenlarven (L4) (Aedes aegypti) in jedes Glas ein.
Nach der gewünschten Zeit wird die Abtötung in % bestimmt. Dabei bedeutet 100 X, daß alle Tiere abgetötet wurden; 0 % bedeutet, daß keine Tiere abgetötet wurden.

[5] = system: Musca domestica-tmultiresistent) Maden; assay: Fly maggot development inhibition test; type: in vivo; conditions: Musca domestica maggots on treated filter paper, 14 days; compared with the prior art; figures not given
Experimental: Fliegenmaden-Entwicklungshommungstest Testtiere: Musca domestica-tmultiresistent) Maden Lösungsmittel: Aceton
2 Gewichtsteile Wirkstoff werden in 1 000 Volumenteilen Lösungsmittel aufgenommen. Die so erhaltene Lösung wird mit weiteren Lösungsmitteln auf die gewünschten Konzentrationen verdünnt.
2,5 ml Wirkstofflösung werden in eine Petrischale pipettiert. Auf dem Boden der Petrischale befindet sich ein Filterpapier mit einem Durchmesser von etwa 9,5 cm. Die Petrischale bleibt so lange offen stehen, bis das Lösungsmittel vollständig verdunstet ist. Je nach Konzentration der Wirkstofflösung ist die Menge Wirkstoff pro m^2 Filterpapier verschieden hoch. Anschließend gibt man etwa 25 Testtiere in die Petrischale und bedeckt sie mit einem Glasdeckel.
14 Tage nach Ansetzen der Versuche wird die Zahl der geschlüpften Fliegen kontrolliert. Bestimmt wird der X-Satz der Schlüpfhemmung im Vergleich zur unbehandelten Kontrolle.

[6] = system: Lucilia cuprina res.-Larven; assay: Test with resistant Lucilia cuprina larvae; type: in vivo; conditions: horse meat, after 24 hours, compared with the prior art, figures not given
Source text: Test mit Lucilia cuprina resistent-Larven
• Emulgator: 35 Gewichtsteile Ethylenglykolmonomethylether • 35 Gewichtsteile Nonylphenolpolyglykolether
Zur Herstellung einer zweckmäßigen Wirkstoffzubereitung vermischt man drei Gewichtsteile Wirkstoff mit sieben Gewichtsteilen des oben angegebenen Gemisches und verdünnt das so erhaltene Konzentrat mit Wasser auf die jeweils gewünschte Konzentration.
Etwa 20 Lucilia cuprina res.-Larven werden in ein Teströhrchen gebracht, welches ca. 1 cm^3 Pferdefleisch und O,5 ml der Wirkstoffzubereitung enthält. Nach 24 Stunden wird der Abtötungsgrad bestimmt.

SMILES	minimal effective concentration [1] [µg/mL]	also measured
CN1C(=O)C(C(=O)Nc2ccc(SC(F)(F)F)cc2)C(=O)N(C)P1(=O)Oc1cccc(Cl)c1 (centres unmarked) [Beispiel 37]	10	
CCN1C(=O)C(C(=O)Nc2ccc(Cl)c(C(F)(F)F)c2)C(=O)N(C)P1(=O)Oc1cccc(Cl)c1 (centres unmarked) [Beispiel 57]	10	
Cc1cccc(OP2(=O)N(C)C(=O)C(C(=O)Nc3ccc(SC(F)(F)F)cc3)C(=O)N2C(C)C)c1 (centres unmarked) [Beispiel 54]	10	
CN1C(=O)C(C(=O)Nc2ccc(SC(F)(F)F)cc2)C(=O)N(c2ccccc2)P1(=O)Oc1ccccc1 (centres unmarked) [Beispiel 44]	10	
CN1C(=O)C(C(=O)Nc2ccc(OC(F)(F)C(F)F)cc2)C(=O)N(C)P1(=O)Oc1ccccc1 (centres unmarked) [Beispiel 15]	10	Abtötung in % [2]: überlegene Wirksamkeit gegenüber dem Stand der Technik
CN1C(=O)C(C(=O)Nc2ccc(S(=O)(=O)C(F)(F)F)cc2)C(=O)N(C)P1(=O)Oc1ccc(Cl)cc1 (centres unmarked) [Beispiel 5]		Dosis effectiva [1]: 10 mg/L
Cc1cccc(OP2(=O)N(C)C(=O)C(C(=O)Nc3ccc(Cl)c(C(F)(F)F)c3)C(=O)N2C(C)C)c1 (centres unmarked) [Beispiel 65]	10	
CN1C(=O)C(C(=O)Nc2ccc([N+](=O)[O-])cc2)C(=O)N(C)P1(=O)Oc1ccc(Cl)cc1 (centres unmarked) [Beispiel 4]	10	
COc1ccc(NC(=O)C2C(=O)N(C)P(=O)(Oc3ccc(C)cc3)N(C)C2=O)cc1 (centres unmarked) [Beispiel 20]	10	
CN1C(=O)C(C(=O)Nc2ccc(OC(F)(F)F)cc2)C(=O)N(C)P1(=O)Oc1ccccc1 (centres unmarked) [Beispiel 16]	10	Abtötung in % [2]: überlegene Wirksamkeit gegenüber dem Stand der Technik; Abtötung in % [3]: überlegene Wirksamkeit gegenüber dem Stand der Technik; Abtötung in % [4]: überlegene Wirksamkeit gegenüber dem Stand der Technik
CCN1C(=O)C(C(=O)Nc2ccc(C(F)(F)F)c(Cl)c2)C(=O)N(C)P1(=O)Oc1cccc(Cl)c1 (centres unmarked) [Beispiel 55]	10	
CN1C(=O)C(C(=O)Nc2ccc([N+](=O)[O-])cc2)C(=O)N(C)P1(=O)Oc1ccc([N+](=O)[O-])cc1 (centres unmarked) [Beispiel 18]	100	
CN1C(=O)C(C(=O)Nc2ccc(S(=O)(=O)C(F)(F)F)cc2)C(=O)N(C)P1(=O)Oc1ccccc1 (centres unmarked) [Beispiel 13]	10	
CN1C(=O)C(C(=O)Nc2ccc(OC(F)(F)F)cc2)C(=O)N(C)P1(=S)Oc1ccc(Cl)cc1 (centres unmarked) [Beispiel 30]	10	Abtötung in % [3]: überlegene Wirksamkeit gegenüber dem Stand der Technik; X-Satz der Schlüpfhemmung im Vergleich zur unbehandelten Kontrolle [5]: überlegene Wirksamkeit gegenüber dem Stand der Technik
CN1C(=O)C(C(=O)Nc2ccc(SC(F)(F)F)cc2)C(=O)N(C)P1(=S)Oc1ccc(Cl)cc1 (centres unmarked) [Beispiel 34]	100	Abtötung in % [3]: überlegene Wirksamkeit gegenüber dem Stand der Technik; Abtötungsgrad [6]: überlegene Wirkung gegenüber dem Stand der Technik
CN1C(=O)C(C(=O)Nc2ccc(SC(F)(F)F)cc2)C(=O)N(C)P1(=O)Oc1ccc(Cl)cc1 (centres unmarked) [Beispiel 8]		Abtötung in % [2]: überlegene Wirksamkeit gegenüber dem Stand der Technik; Abtötung in % [4]: überlegene Wirksamkeit gegenüber dem Stand der Technik; Abtötungsgrad [6]: überlegene Wirkung gegenüber dem Stand der Technik; Dosis effectiva [1]: 10 mg/L
CCN1C(=O)C(C(=O)Nc2ccc(Oc3ccc(C(F)(F)F)cc3)cc2)C(=O)N(C)P1(=O)Oc1cccc(Cl)c1 (centres unmarked) [Beispiel 46]	10	

SMILES	minimal effective concentration [1] [µg/mL]	also measured
CCN1C(=O)C(C(=O)Nc2ccc(C(F)(F)F)c(C(F)(F)F)c2)C(=O)N(C)P1(=O)Oc1cccc(Cl)c1 (centres unmarked) [Beispiel 61]	10	
CCN1C(=O)C(C(=O)Nc2ccc(C(F)(F)F)cc2C(F)(F)F)C(=O)N(C)P1(=O)Oc1cccc(Cl)c1 (centres unmarked) [Beispiel 56]	10	
CC(C)N1C(=O)C(C(=O)Nc2ccc(C(F)(F)F)cc2C(F)(F)F)C(=O)N(Cc2ccccc2)P1(=O)Oc1cccc(Cl)c1 (centres unmarked) [Beispiel 51]	100	
CCN1C(=O)C(C(=O)Nc2ccc(OC(F)(F)F)cc2)C(=O)N(C)P1(=O)Oc1cccc(Cl)c1 (centres unmarked) [Beispiel 59]	10	
CC(C)N1C(=O)C(C(=O)Nc2ccc(C(F)(F)F)c(Cl)c2)C(=O)N(C)P1(=O)Oc1cccc(Cl)c1 (centres unmarked) [Beispiel 41]	10	Abtötungsgrad [6]: überlegene Wirkung gegenüber dem Stand der Technik
CN1C(=O)C(C(=O)Nc2ccc(SC(F)(F)F)cc2)C(=O)N(C)P1(=S)Oc1ccccc1 (centres unmarked) [Beispiel 33]	10	Abtötungsgrad [6]: überlegene Wirkung gegenüber dem Stand der Technik
CN1C(=O)C(C(=O)Nc2ccc(S(=O)(=O)C(F)(F)F)cc2)C(=O)N(C)P1(=O)Oc1ccc(Cl)cc1 (centres unmarked) [Beispiel 26]		Abtötung in % [4]: überlegene Wirksamkeit gegenüber dem Stand der Technik; X-Satz der Schlüpfhemmung im Vergleich zur unbehandelten Kontrolle [5]: überlegene Wirksamkeit gegenüber dem Stand der Technik; Abtötungsgrad [6]: überlegene Wirkung gegenüber dem Stand der Technik; Dosis effectiva [1]: 100 mg/L
CC(C)N1C(=O)C(C(=O)Nc2ccc(SC(F)(F)F)cc2)C(=O)N(C)P1(=O)Oc1cccc(Cl)c1 (centres unmarked) [Beispiel 42]	10	
CN1C(=O)C(C(=O)Nc2ccc(OC(F)(F)F)cc2)C(=O)N(C)P1(=O)Oc1ccc(Cl)cc1 (centres unmarked) [Beispiel 17]	10	Abtötung in % [3]: überlegene Wirksamkeit gegenüber dem Stand der Technik
COc1ccc(NC(=O)C2C(=O)N(C)P(=O)(Oc3ccc(OC)cc3)N(C)C2=O)cc1 (centres unmarked) [Beispiel 19]	100	
CN1C(=O)C(C(=O)Nc2ccc(SC(F)(F)F)cc2)C(=O)N(C)P1(=O)Oc1ccccc1 (centres unmarked) [Beispiel 10]	10	Abtötung in % [2]: überlegene Wirksamkeit gegenüber dem Stand der Technik; Abtötung in % [3]: überlegene Wirksamkeit gegenüber dem Stand der Technik; Abtötung in % [4]: überlegene Wirksamkeit gegenüber dem Stand der Technik
CN1C(=O)C(C(=O)Nc2ccc(Cl)c(C(F)(F)F)c2)C(=O)N(C)P1(=S)Oc1ccc(Cl)cc1 (centres unmarked) [Beispiel 6]	10	Abtötung in % [4]: überlegene Wirksamkeit gegenüber dem Stand der Technik; X-Satz der Schlüpfhemmung im Vergleich zur unbehandelten Kontrolle [5]: überlegene Wirksamkeit gegenüber dem Stand der Technik
CC(C)N1C(=O)C(C(=O)Nc2ccc(SC(F)(F)F)c(Cl)c2)C(=O)N(C)P1(=O)Oc1cccc(Cl)c1 (centres unmarked) [Beispiel 64]	10	
CN1C(=O)C(C(=O)Nc2ccccc2SC(F)(F)F)C(=O)N(C)P1(=O)Oc1ccccc1 (centres unmarked) [Beispiel 11]	100	
CC(C)N1C(=O)C(C(=S)Nc2ccccc2)C(=O)N(C)P1(=O)Oc1cccc(Cl)c1 (centres unmarked) [Beispiel 62]	100	
CCN1C(=O)C(C(=O)Nc2ccc(SC(F)(F)F)cc2)C(=O)N(C)P1(=O)Oc1cccc(Cl)c1 (centres unmarked) [Beispiel 58]	10	
CN1C(=O)C(C(=O)Nc2ccc(OC(F)(F)F)cc2)C(=O)N(C)P1(=O)Oc1cccc(Cl)c1 (centres unmarked) [Beispiel 38]	10	
